Patent US20100069366A1, “ANTIBACTERIAL QUINOLINE DERIVATIVES” (JANSSEN-CILAG, priority 2006, published 2010)
≈ marks a conversion by molar mass, not a printed value. Where two headings read alike, the source gives them in different places.

Legend:
Assay type in all cases: cell-based
M. Smegmatis ATCC607 = assay: In-vitro anti-bacterial activity against strain M. smegmatis ATCC607; settings: for IC90: Mycolicibacterium smegmatis
Protocol: Flat-bottom, sterile 96-well plastic microtiter plates were filled with 180 μl of sterile deionized water, supplemented with 0.25% BSA. Subsequently, stock solutions (7.8× final test concentration) of compounds were added in 45 μl volumes to a series of duplicate wells in column 2 so as to allow evaluation of their effects on bacterial growth. Serial five-fold dilutions (45 μl in 180 μl) were made directly in the microtiter plates from column 2 to 11 using a customised robot system (Zymark Corp., Hopkinton, Mass.). Pipette tips were changed after every 3 dilutions to minimize pipetting errors with high hydrophobic compounds. Untreated control samples with (column 1) and without (column 12) inoculum were included in each microtiter plate. Approximately 250 CFU per well of bacteria inoculum, in a volume of 100 μl in 2.8× Mueller-Hinton broth medium, was added to the rows A to H, except column 12. The same volume of broth medium without inoculum was added to column 12 in row A to H. The cultures were incubated at 37° C. for 48 hours in a humidified 5% CO2 atmosphere (incubator with open air valve and continuous ventilation). At the end of incubation, two days after inoculation, the bacterial growth was quantitated fluorometrically. Therefore Alamar Blue (10×) was added to all wells in a volume of 20 μl and plates were incubated for another 2 hours at […]
The fluorescence was read in a computer-controlled fluorometer (Cytofluor, Biosearch) at an excitation wavelength of 530 nm and an emission wavelength of 590 nm (gain 30).

[1] = tested on: Streptococcus pyogens (ATCC8668); assay: Microtitre plate assay, IC90 determination, SPY 8668
Protocol: (§1) The bacteria used in this study were grown overnight in flasks containing 100 ml Mueller-Hinton Broth (Becton Dickinson—cat. no. 275730) in sterile de-ionized water, with shaking, at 37° C. Stocks (0.5 ml/tube) were stored at −70° C. until use. Bacteria titrations were performed in microtiter plates to detect the TCID50, in which the TCID50 represents the dilution that gives rise to bacterial growth in 50% of inoculated cultures.
(§2) In general, an inoculum level of approximately 100 TCID50 was used for susceptibility testing.
(§3) Flat-bottom, sterile 96-well plastic microtiter plates were filled with 180 μl of sterile deionized water, supplemented with 0.25% BSA. Subsequently, stock solutions (7.8× final test concentration) of compounds were added in 45 μl volumes in column 2 Serial five-fold dilutions (45 μl in […]) were made directly in the microtiter plates from column 2 to reach column 11. Untreated control samples with (column 1) and without (column 12) inoculum were included in each microtiter plate. Depending on the bacteria type, approximately 10 to 60 CFU per well of bacteria inoculum (100 TCID50), in a volume of 100 μl in 2.8× Mueller-Hinton broth medium, was added to the rows A to H, except column 12. The same volume of broth medium without inoculum was added to column 12 in row A to H. The cultures were incubated at 37° C. for 24 hours under a normal atmosphere (incubator with open air valve and continuous ventilation). At the end of incubation, one day after inoculation, the bacterial growth was quantitated fluorometrically. Therefore resazurin (0.6 mg/ml) was added in a volume of 20 μl to all wells 3 hours after inoculation, and the plates were re-incubated overnight. A change in colour from blue to pink indicated the growth of bacteria. The fluorescence was read in a computer-controlled fluorometer (Cytofluor Biosearch) at an excitation wavelength of 530 nm and an emission wavelength of 590 nm. The % growth inhibition achieved by the compounds was calculated according to standard methods.

[2] = tested on: Staphylococcus aureus (ATCC29213); assay: Microtitre plate assay, IC90 determination, STA 29213
Protocol: as §1, §2, §3

[3] = tested on: Streptococcus pneumoniae (ATCC6305); assay: Microtitre plate assay, IC90 determination, SPN 6305; settings: 90% inhibitory concentration for bacterial growth, resazurin
Protocol: as §1, §2, §3

[4] = tested on: Enterococcus faecalis (ATCC29212); assay: Microtitre plate assay, IC90 determination, EFA 29212
Protocol: as §1, §2, §3

[5] = tested on: Pseudomonas aeruginosa (ATCC27853); assay: Microtitre plate assay, IC90 determination, PAE 27853
Protocol: as §1, §2, §3

[6] = tested on: methicilline resistant Staphylococcus aureus (MRSA) (a clinical isolate from the University of Antwerp); assay: Microtitre plate assay, IC90 determination, STA RMETH; settings: Staphylococcus aureus, 90% inhibitory concentration for bacterial growth, resazurin, read-out: IC90 (μg/ml) STA RMETH
Protocol: as §1, §2, §3

[7] = tested on: Staphylococcus aureus (ATCC25923); assay: Microtitre plate assay, IC90 determination, STA 25923
Protocol: as §1, §2, §3

[8] = 90% inhibitory concentration for bacterial growth, 48 hours, Alamar Blue fluorescence
[9] = Streptococcus pyogens ATCC8668, 90% inhibitory concentration for bacterial growth, resazurin
[10] = Staphylococcus aureus ATCC29213, 90% inhibitory concentration for bacterial growth, resazurin
[11] = Streptococcus pneumoniae ATCC6305
[12] = Enterococcus faecalis ATCC29212, 90% inhibitory concentration for bacterial growth, resazurin
[13] = Pseudomonas aeruginosa ATCC27853, 90% inhibitory concentration for bacterial growth, resazurin
[14] = ATCC607, 90% inhibitory concentration for bacterial growth, 48 hours, Alamar Blue fluorescence, read-out: M. smegmatis IC90
[15] = Streptococcus pyogens ATCC8668, 90% inhibitory concentration for bacterial growth, resazurin, read-out: IC90 (μg/ml) SPY 8668
[16] = Staphylococcus aureus ATCC29213, 90% inhibitory concentration for bacterial growth, resazurin, read-out: IC90 (μg/ml) STA 29213
[17] = Streptococcus pneumoniae ATCC6305, read-out: IC90 (μg/ml) SPN 6305
[18] = Staphylococcus aureus ATCC25923, 90% inhibitory concentration for bacterial growth, resazurin, read-out: IC90 (μg/ml) STA 25923
[19] = Enterococcus faecalis ATCC29212, 90% inhibitory concentration for bacterial growth, resazurin, read-out: IC90 (μg/ml) EFA 29212
[20] = Pseudomonas aeruginosa ATCC27853, 90% inhibitory concentration for bacterial growth, resazurin, read-out: IC90 (μg/ml) PAE 27853
[21] = ATCC607, 48 h, read-out: M. smegmatis IC90 (μg/ml), 90% inhibitory concentration for bacterial growth, Alamar Blue fluorescence
[22] = Streptococcus, ATCC8668, read-out: IC90 (μg/ml) SPY 8668
[23] = Streptococcus pneumoniae, ATCC6305, read-out: IC90 (μg/ml) SPN 6305, Streptococcus pneumoniae ATCC6305
[24] = Enterococcus faecalis, ATCC29212, read-out: IC90 (μg/ml) EFA 29212
[25] = Pseudomonas aeruginosa, ATCC27853, read-out: IC90 (μg/ml) PAE 27853

IC90 [1, 15] [µg/mL]	IC90 [2, 16] [µg/mL]	IC90 [3, 17] [µg/mL]	IC90 [4, 19] [µg/mL]	IC90 [5, 20] [µg/mL]	SMILES	M. smegmatis IC90 (M. Smegmatis ATCC607; [8]) [µg/mL]	IC90 (μg/ml) SPY 8668 [1, 9] [µg/mL]	IC90 (μg/ml) STA 29213 [2, 10] [µg/mL]	IC90 (μg/ml) SPN 6305 [3, 11] [µg/mL]	IC90 (μg/ml) EFA 29212 [4, 12] [µg/mL]	IC90 (μg/ml) PAE 27853 [5, 13] [µg/mL]	IC90 (M. Smegmatis ATCC607; [14]) [µg/mL]	other results
–	–	–	–	–	COc1nc2ccc(-c3ccccc3)cc2cc1C(C(=CCN(C)C)c1cccc2ccccc12)c1ccccc1 (mixture of isomers) [Compound 32]	1.69	3.79	1.69	1.9	9.51	3.79	–	–
–	–	–	–	–	COc1nc2ccc(Br)cc2cc1C(=C(C)CCN(C)C)c1ccccc1 (mixture of isomers) [Compound 35]	3.79	1.35	33.79	1.35	15.09	15.09	–	–
–	–	–	–	–	COc1nc2ccc(Br)cc2cc1C(C(=CCN(C)C)c1cccc(F)c1)c1ccccc1 (racemic) [Compound 25]	40.15	17.93 (≈ 35.5 µM)	22.58 (≈ 44.7 µM)	8.01 (≈ 15.8 µM)	40.15 (≈ 79.4 µM)	40.15 (≈ 79.4 µM)	–	–
–	–	–	–	–	COc1nc2ccc(C)cc2cc1C(C(=CCN(C)C)c1ccccc1)c1ccccc1 (racemic) [Compound 30]	2.67	6.7 (≈ 15.9 µM)	6.7 (≈ 15.9 µM)	1.34 (≈ 3.17 µM)	11.91 (≈ 28.2 µM)	13.36 (≈ 31.6 µM)	–	–
–	–	–	–	–	CSc1nc2ccc(-c3ccccc3)cc2cc1C(=C(CCN(C)C)c1ccccc1)c1ccccc1 (single isomer, unassigned) [Compound 40]	1.58	7.94 (≈ 15.9 µM)	19.93 (≈ 39.8 µM)	3.98 (≈ 7.95 µM)	15.83 (≈ 31.6 µM)	–	–	–
10.7 (≈ 19.9 µM)	2.69 (≈ 5 µM)	9.56 (≈ 17.8 µM)	10.7 (≈ 19.9 µM)	9.56 (≈ 17.8 µM)	COc1nc2ccc(Br)cc2cc1/C(=C(/CCN(C)C)c1cccc2ccccc12)c1ccccc1 [Compound 9]	–	–	–	–	–	–	1.7 (≈ 3.16 µM)	IC90 [6]: 3.81 µg/mL (≈ 7.09 µM); IC90 [7, 18]: 5.38 µg/mL (≈ 10 µM)
9.56 (≈ 17.8 µM)	4.79 (≈ 8.91 µM)	12 (≈ 22.4 µM)	5.38 (≈ 10 µM)	21.4 (≈ 39.8 µM)	COc1nc2ccc(Br)cc2cc1C(/C(=C/CN(C)C)c1cccc2ccccc12)c1ccccc1 (stereo not drawn) [Compound 10]	–	–	–	–	–	–	0.43 (≈ 0.8 µM)	IC90 [6]: 12 µg/mL (≈ 22.4 µM); IC90 [7, 18]: 4.27 µg/mL (≈ 7.94 µM)
–	–	–	–	–	COc1nc2ccc(-c3ccccc3)cc2cc1C(/C(=C/CN(C)C)c1ccccc1)c1ccccc1 (stereo not drawn) [Compound 11]	–	–	–	–	–	–	–	IC90 (M. Smegmatis ATCC607; [21]): 1.53 µg/mL (≈ 3.16 µM); IC90 [1, 22]: 7.68 µg/mL (≈ 15.8 µM); IC90 ([2]; Staphylococcus aureus, ATCC29213, read-out: IC90 (μg/ml) STA 29213): 1.53 µg/mL (≈ 3.16 µM); IC90 [3, 23]: 1.22 µg/mL (≈ 2.52 µM); IC90 [4, 24]: 15.3 µg/mL (≈ 31.6 µM); IC90 [5, 25]: 7.68 µg/mL (≈ 15.8 µM)
–	–	–	–	–	COc1nc2ccc(Br)cc2cc1C(/C(=C/CN(C)C)CCc1ccccc1)c1ccccc1 (stereo not drawn) [Compound 13]	–	–	–	–	–	–	–	IC90 (M. Smegmatis ATCC607; [21]): 1.73 µg/mL (≈ 3.36 µM); IC90 [1, 22]: 9.73 µg/mL (≈ 18.9 µM); IC90 [3, 23]: 8.67 µg/mL (≈ 16.8 µM); IC90 ([7]; Staphylococcus aureus, ATCC25923, read-out: IC90 (μg/ml) STA 25923): 10.9 µg/mL (≈ 21.2 µM); IC90 [4, 24]: 12.2 µg/mL (≈ 23.7 µM); IC90 [5, 25]: 12.2 µg/mL (≈ 23.7 µM)
26.8 (≈ 63.1 µM)	33.8 (≈ 79.4 µM)	1.35 (≈ 3.17 µM)	37.9 (≈ 89.1 µM)	37.9 (≈ 89.1 µM)	COc1nc2ccc(Br)cc2cc1C(/C(C)=C/CN(C)C)c1ccccc1 (stereo not drawn) [Compound 14]	–	–	–	–	–	–	1.35 (≈ 3.17 µM)	–
